This assay deals with human FXR (NR1H4) (Homo sapiens (Human), UniProt Q96RI1). The experiment in a line: Human FXR (NR1H4) Assay (Gal4 promoter driven luciferase reporter, Indigo Bioscience kit IB00601). The assay is classed as cell-based. As to conditions: for Efficacy (%): efficacy normalized to CDCA set as 100%; for EC50: potency ranges. An excerpt: Assays Human FXR (NR1H4) Assay
Determination of a ligand mediated Gal4 promoter driven transactivation quantify ligand binding mediated activation of FXR. FXR Reporter Assay kit purchased from Indigo Bioscience (Catalogue number: IB00601) to determine the potency and efficacy of compound developed by Enanta that can induce FXR activation. The principle application of this reporter assay system is to quantify functional activity of human FXR. The assay utilizes non-human mammalian cells, CHO (Chinese hamster ovary) cells engineered to express human NR1H4 protein (referred to as FXR). Reporter cells also incorporate the cDNA encoding beetle luciferase which catalyzes the substrates and yields photon emission. Luminescence intensity of the reaction is quantified using a plate-reading luminometer, Envision. Reporter Cells include the luciferase reporter gene functionally linked to an FXR responsive promoter. Thus, quantifying changes in luciferase expression in the treated reporter cells provides a sensitive surrogate measure of the changes in FXR activity. […] The assay is according to the manufacturer's instructions. In brief, the assay was performed in white, 96 well plates using final volume of 100 ul containing cells with different doses of compounds. Retrieve Reporter Cells from −80° C. storage. Perform a rapid thaw of the frozen cells by transferring a 10 ml volume of 37° C. cell recovery medium into the tube of frozen cells. Recap the tube of Reporter Cells and immediately place it in a 37° C. water bath for 5-10 minutes. Retrieve the tube of Reporter Cell Suspension from the water bath. Sanitize the outside surface of the tube with a 70% alcohol swab, and then transfer it into the cell culture hood. Dispense 90 μl of cell suspension into each well of the 96-well Assay Plate. Transfer the plate into 37° C. incubator, allowing the cells adherent to the bottom of the well. Dilute compounds in Dilution Plate (DP), and administrate to cells at Assay Plate (AP). DMSO content of the samples was kept at 0.2%. Cells were incubated for additional 22 hours before luciferase activities were measured. Thirty minutes before intending to quantify FXR activity, remove Detection Substrate and Detection Buffer from the refrigerator and place them in a low-light area so that they may equilibrate to room temperature. Remove the plate's lid and discard all media contents by ejecting it into an appropriate waste container. Gently tap the inverted plate onto a clean absorbent paper towel to remove residual droplets. Cells will remain tightly adhered to well bottoms. Add 100 μl of luciferase detection reagent to each well of the assay plate. Allow the assay plate to rest at room temperature for at least 5 minutes following the addition of LDR. Set the instrument (Envision) to perform a single 5 second “plate shake” prior to reading the first assay well. Read time may be 0.5 second (500 mSec) per well.

Each structure is given as a SMILES string. Where only a bound is given, the exact number is not on record here.

Usually EC50 stands for the midpoint of the concentration-response curve. Lower therefore signals higher potency in that assay.

Sequence of human FXR (NR1H4) (Q96RI1 whole entry, the tested form may be a part): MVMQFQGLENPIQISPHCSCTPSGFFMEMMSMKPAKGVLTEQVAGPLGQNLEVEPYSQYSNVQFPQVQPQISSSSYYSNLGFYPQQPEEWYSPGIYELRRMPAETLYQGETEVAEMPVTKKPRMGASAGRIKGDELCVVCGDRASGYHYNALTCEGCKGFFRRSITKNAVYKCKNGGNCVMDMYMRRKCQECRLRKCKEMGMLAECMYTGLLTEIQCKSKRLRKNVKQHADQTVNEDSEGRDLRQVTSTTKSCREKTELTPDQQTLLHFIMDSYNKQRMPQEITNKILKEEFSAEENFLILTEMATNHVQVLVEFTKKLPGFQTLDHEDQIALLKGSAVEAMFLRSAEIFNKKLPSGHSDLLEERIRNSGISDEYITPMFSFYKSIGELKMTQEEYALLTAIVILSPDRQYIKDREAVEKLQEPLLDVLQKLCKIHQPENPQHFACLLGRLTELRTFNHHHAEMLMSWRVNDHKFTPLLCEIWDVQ

As to `CC[C@H]1[C@@H](O)[C@@H]2[C@H](CC[C@]3(C)[C@@H]([C@H](C)CCNC(=O)NS(=O)(=O)N4CCC(C)(C)CC4)CC[C@@H]23)[C@@]2(C)CC[C@@H](O)C[C@@H]12` [Example 65], the “Efficacy (%)” value was 498% and the EC50 is less than 100 nM.

`CC[C@H]1[C@@H](O)[C@@H]2[C@H](CC[C@]3(C)[C@@H]([C@H](C)CCCNS(=O)(=O)[O-])CC[C@@H]23)[C@@]2(C)CC[C@@H](O)C[C@@H]12.[Na+]` [Example 135]: the “Efficacy (%)” value came out at 4% and the EC50 fell in the range of 1000 to 10000 nM.

On to `CC[C@H]1[C@@H](O)[C@@H]2[C@H](CC[C@]3(C)[C@@H]([C@H](C)CCNC(=O)NS(=O)(=O)c4ccc(OC(F)(F)F)cc4)CC[C@@H]23)[C@@]2(C)CC[C@@H](O)C[C@@H]12` [Example 2], for which the “Efficacy (%)” value is recorded as 300% and the EC50 was less than 100 nM.

Turning to `CC[C@H]1[C@@H](O)[C@@H]2[C@H](CC[C@]3(C)[C@@H]([C@H](C)CCNC(=O)NS(=O)(=O)c4ccc(C)c(C)c4)CC[C@@H]23)[C@@]2(C)CC[C@@H](O)C[C@@H]12` [Example 17], the “Efficacy (%)” value came to 357% and the EC50 was less than 100 nM.

Take `CC[C@H]1[C@@H](O)[C@@H]2[C@H](CC[C@]3(C)[C@@H]([C@H](C)CCNS(=O)(=O)C(C)(C)C)CC[C@@H]23)[C@@]2(C)CC[C@@H](O)C[C@@H]12` [Example 139]: the “Efficacy (%)” value came to 138% and the EC50 was in the range of 1000 to 10000 nM.

In the case of `CC[C@H]1[C@@H](O)[C@@H]2[C@H](CC[C@]3(C)[C@@H]([C@H](C)CCNC(=O)NS(=O)(=O)N4C(C)CCC4C)CC[C@@H]23)[C@@]2(C)CC[C@@H](O)C[C@@H]12` (stereo partly drawn) [Example 98], the “Efficacy (%)” value is reported as 344% and the EC50 is less than 100 nM.

For `CC[C@H]1[C@@H](O)[C@@H]2[C@H](CC[C@]3(C)[C@@H]([C@H](C)CCNC(=O)NS(=O)(=O)c4ccc(C)c(F)c4)CC[C@@H]23)[C@@]2(C)CC[C@@H](O)C[C@@H]12` [Example 16], the “Efficacy (%)” value is 265% and the EC50 was less than 100 nM.

For the compound `CC[C@H]1[C@@H](O)[C@@H]2[C@H](CC[C@]3(C)[C@@H]([C@H](C)CCNC(=O)NS(=O)(=O)c4cnccn4)CC[C@@H]23)[C@@]2(C)CC[C@@H](O)C[C@@H]12` [Example 64], the “Efficacy (%)” value is 334% and the EC50 was 1000 to 10000 nM.

For the compound `CC[C@H]1[C@@H](O)[C@@H]2[C@H](CC[C@]3(C)[C@@H]([C@H](C)CCNC(=O)NS(=O)(=O)c4cccc(C(C)(C)C)c4)CC[C@@H]23)[C@@]2(C)CC[C@@H](O)C[C@@H]12` [Example 53], the “Efficacy (%)” value came out at 263% and the EC50 was less than 100 nM.

With `CC[C@H]1[C@@H](O)[C@@H]2[C@H](CC[C@]3(C)[C@@H]([C@H](C)CCNC(=O)NS(=O)(=O)N4CCC5(CC4)COC5)CC[C@@H]23)[C@@]2(C)CC[C@@H](O)C[C@@H]12` [Example 74], the “Efficacy (%)” value came out at 242% and the EC50 was 100 to 1000 nM.

For the compound `CC[C@H]1[C@@H](O)[C@@H]2[C@H](CC[C@]3(C)[C@@H]([C@H](C)CCNC(=O)NS(=O)(=O)N4C[C@@H](C)O[C@@H](C)C4)CC[C@@H]23)[C@@]2(C)CC[C@@H](O)C[C@@H]12` [Example 75], the “Efficacy (%)” value is given as 323% and the EC50 was less than 100 nM.

As to `CC[C@H]1[C@@H](O)[C@@H]2[C@H](CC[C@]3(C)[C@@H]([C@H](C)CNC(=O)NS(=O)(=O)c4ccc(-c5ccccc5)s4)CC[C@@H]23)[C@@]2(C)CC[C@@H](O)C[C@@H]12` [Example 114], the “Efficacy (%)” value stood at 322% and the EC50 is less than 100 nM.

Regarding `CC[C@H]1[C@@H](O)[C@@H]2[C@H](CC[C@]3(C)[C@@H]([C@H](C)CNC(=O)NS(=O)(=O)C4CC4)CC[C@@H]23)[C@@]2(C)CC[C@@H](O)C[C@@H]12` [Example 30], the “Efficacy (%)” value turned out to be 194% and the EC50 fell in the range of 1000 to 10000 nM.

Turning to `CC[C@H]1[C@@H](O)[C@@H]2[C@H](CC[C@]3(C)[C@@H]([C@H](C)CCNC(=O)NS(=O)(=O)c4ccc(C(C)(C)CO)cc4)CC[C@@H]23)[C@@]2(C)CC[C@@H](O)C[C@@H]12` [Example 69], the “Efficacy (%)” value stood at 490% and the EC50 is less than 100 nM.

As for `CC[C@H]1[C@@H](O)[C@@H]2[C@H](CC[C@]3(C)[C@@H]([C@H](C)CCNC(=O)NS(=O)(=O)c4ccc5c(c4)CCC5)CC[C@@H]23)[C@@]2(C)CC[C@@H](O)C[C@@H]12` [Example 55], the “Efficacy (%)” value amounted to 271% and the EC50 was less than 100 nM.

On to `CC[C@H]1[C@@H](O)[C@@H]2[C@H](CC[C@]3(C)[C@@H]([C@H](C)CCNC(=O)NS(=O)(=O)C(F)(F)F)CC[C@@H]23)[C@@]2(C)CC[C@@H](O)C[C@@H]12` [Example 104], for which the “Efficacy (%)” value worked out at 298% and the EC50 was 1000 to 10000 nM.

`CC[C@H]1[C@@H](O)[C@@H]2[C@H](CC[C@]3(C)[C@@H]([C@H](C)CCNC(=O)NS(=O)(=O)C4CC5CCC4C5)CC[C@@H]23)[C@@]2(C)CC[C@@H](O)C[C@@H]12` (stereo partly drawn) [Example 76]: the “Efficacy (%)” value is 290% and the EC50 is less than 100 nM.

As to `CC[C@H]1[C@@H](O)[C@@H]2[C@H](CC[C@]3(C)[C@@H]([C@H](C)CCNC(=O)NS(=O)(=O)c4ccc(C)cc4)CC[C@@H]23)[C@@]2(C)CC[C@@H](O)C[C@@H]12` [Example 93], the “Efficacy (%)” value came out at 443% and the EC50 is less than 100 nM.

As to `CC[C@H]1[C@@H](O)[C@@H]2[C@H](CC[C@]3(C)[C@@H]([C@H](C)CCNC(=O)NS(=O)(=O)C4(C)CC4)CC[C@@H]23)[C@@]2(C)CC[C@@H](O)C[C@@H]12` [Example 46], the “Efficacy (%)” value is reported as 315% and the EC50 is less than 100 nM.

Turning to `CC[C@H]1[C@@H](O)[C@@H]2[C@H](CC[C@]3(C)[C@@H]([C@H](C)CCNC(=O)NS(=O)(=O)c4ccc(C5CCCCC5)cc4)CC[C@@H]23)[C@@]2(C)CC[C@@H](O)C[C@@H]12` [Example 59], the “Efficacy (%)” value worked out at 344% and the EC50 fell in the range of 100 to 1000 nM.

With `CC[C@H]1[C@@H](O)[C@@H]2[C@H](CC[C@]3(C)[C@@H]([C@H](C)CCNC(=O)NS(=O)(=O)c4ccc(C(F)(F)F)cc4)CC[C@@H]23)[C@@]2(C)CC[C@@H](O)C[C@@H]12` [Example 14], the “Efficacy (%)” value is listed as 295% and the concentration for a half-maximal effect (EC50) lay within 100 to 1000 nM.

Consider `CC[C@H]1[C@@H](O)[C@@H]2[C@H](CC[C@]3(C)[C@@H]([C@H](C)CCNC(=O)NS(=O)(=O)C[C@@]45CCC(CC4=O)C5(C)C)CC[C@@H]23)[C@@]2(C)CC[C@@H](O)C[C@@H]12` [Example 61], for which the “Efficacy (%)” value was found to be 403% and the EC50 was less than 100 nM.

In the case of `CC[C@H]1[C@@H](O)[C@@H]2[C@H](CC[C@]3(C)[C@@H]([C@H](C)CCNC(=O)NS(=O)(=O)N4CC(F)(F)C(F)(F)C4)CC[C@@H]23)[C@@]2(C)CC[C@@H](O)C[C@@H]12` [Example 81], the “Efficacy (%)” value is recorded as 315% and the EC50 was less than 100 nM.

Take `CC[C@H]1[C@@H](O)[C@@H]2[C@H](CC[C@]3(C)[C@@H]([C@H](C)CCNC(=O)NS(=O)(=O)C4CCC(F)(F)CC4)CC[C@@H]23)[C@@]2(C)CC[C@@H](O)C[C@@H]12` [Example 89]: the “Efficacy (%)” value is listed as 351% and the EC50 was less than 100 nM.

With `CC[C@H]1[C@@H](O)[C@@H]2[C@H](CC[C@]3(C)[C@@H]([C@H](C)CCNC(=O)NS(=O)(=O)C4CC4)CC[C@@H]23)[C@@]2(C)CC[C@@H](O)C[C@@H]12` [Example 5], the “Efficacy (%)” value amounted to 369% and the concentration for a half-maximal effect (EC50) was 100 to 1000 nM.

Take `CC[C@H]1[C@@H](O)[C@@H]2[C@H](CC[C@]3(C)[C@@H]([C@H](C)CCNC(=O)NS(=O)(=O)C(C)(C)CO)CC[C@@H]23)[C@@]2(C)CC[C@@H](O)C[C@@H]12` [Example 122]: the “Efficacy (%)” value stood at 121% and the EC50 was in the range of 1000 to 10000 nM.

For the compound `CC[C@H]1[C@@H](O)[C@@H]2[C@H](CC[C@]3(C)[C@@H]([C@H](C)CCNS(=O)(=O)CCC(=O)O)CC[C@@H]23)[C@@]2(C)CC[C@@H](O)C[C@@H]12` [Example 141], the “Efficacy (%)” value worked out at 16% and the EC50 fell in the range of 1000 to 10000 nM.

Values taken from patent US10208081B2, “Bile acid derivatives as FXR/TGR5 agonists and methods of use thereof” (Enanta Pharmaceuticals, Inc., priority 2014, dated 2019).
